Common to all, as to type: biochemical
The target of assay [1] is T1, Mfn1IM (mini-mitofusin Mfn1) (Homo sapiens, UniProt Q8IWA4, S329P/DEL366-695).
T1 construct: pET28, E. coli Rosetta(DE3); N-terminal His6 cut off with PreScission; ~50 kD; monomer with GDP, dimer with GDP-BeF3-
T1 sequence (Q8IWA4 1-365 S329P): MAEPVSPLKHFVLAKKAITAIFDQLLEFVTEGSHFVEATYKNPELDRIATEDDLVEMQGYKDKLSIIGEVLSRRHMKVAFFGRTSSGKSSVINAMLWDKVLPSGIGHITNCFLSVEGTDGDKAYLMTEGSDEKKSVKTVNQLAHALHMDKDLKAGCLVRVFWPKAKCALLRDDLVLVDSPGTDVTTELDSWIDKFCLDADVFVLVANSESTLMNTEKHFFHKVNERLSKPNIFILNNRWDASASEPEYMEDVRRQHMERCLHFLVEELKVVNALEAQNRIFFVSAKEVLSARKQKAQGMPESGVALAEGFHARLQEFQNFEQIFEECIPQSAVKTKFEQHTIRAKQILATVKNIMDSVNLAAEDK
T1 sequence (Q8IWA4 696-741): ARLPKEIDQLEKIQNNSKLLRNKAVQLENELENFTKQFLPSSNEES
In words: malachite green phosphate release, allosteric sigmoidal fit. As to conditions: 2.5 uM protein; pH 7.4, 50 mM KCl, 5 mM MgCl2, 1 mM DTT, 37 C, 15 min.

Assay [2] deals with T2, Mfn1IM (mini-mitofusin Mfn1) (Homo sapiens, UniProt Q8IWA4, DEL366-695).
T2 construct: pET28, E. coli Rosetta(DE3); N-terminal His6 cut off with PreScission; ~50 kD; monomer with GDP, dimer with GDP-BeF3-
T2 sequence (Q8IWA4 1-365): T1 sequence (Q8IWA4 1-365 S329P) with P329S
T2 sequence (Q8IWA4 696-741): T1 sequence (Q8IWA4 696-741)
The description is as above. As to conditions: 2.5 uM protein; pH 7.4, 50 mM KCl, 5 mM MgCl2, 1 mM DTT, 37 C, 15 min.

Assay [3] deals with T3, Mfn1^WT-FLAG (full-length) (Mus musculus, UniProt Q811U4).
T3 construct: full-length Mfn1 with FLAG tag, TET-induced in Flp-In TREx HEK293 cells; isolated mitochondria; ~200 kD species consistent with cis dimer
T3 sequence (Q811U4 1-741): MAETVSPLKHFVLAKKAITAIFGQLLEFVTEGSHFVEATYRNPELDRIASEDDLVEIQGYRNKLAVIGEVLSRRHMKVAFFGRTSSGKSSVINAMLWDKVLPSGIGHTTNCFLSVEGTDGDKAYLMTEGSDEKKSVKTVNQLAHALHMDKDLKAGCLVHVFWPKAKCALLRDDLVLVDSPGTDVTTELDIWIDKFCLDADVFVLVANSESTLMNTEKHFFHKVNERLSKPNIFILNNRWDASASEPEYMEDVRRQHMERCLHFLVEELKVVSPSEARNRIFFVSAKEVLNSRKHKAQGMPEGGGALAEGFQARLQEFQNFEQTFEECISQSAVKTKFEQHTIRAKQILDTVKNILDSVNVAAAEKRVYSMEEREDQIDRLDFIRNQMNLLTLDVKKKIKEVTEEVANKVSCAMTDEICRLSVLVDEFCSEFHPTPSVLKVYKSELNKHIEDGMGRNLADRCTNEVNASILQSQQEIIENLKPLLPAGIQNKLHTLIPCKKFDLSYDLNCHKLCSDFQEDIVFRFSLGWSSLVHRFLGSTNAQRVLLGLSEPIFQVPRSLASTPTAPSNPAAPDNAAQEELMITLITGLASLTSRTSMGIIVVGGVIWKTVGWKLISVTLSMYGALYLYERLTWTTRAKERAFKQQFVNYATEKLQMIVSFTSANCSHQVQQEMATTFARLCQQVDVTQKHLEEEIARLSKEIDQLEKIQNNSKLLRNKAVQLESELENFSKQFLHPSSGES
In words: blue native PAGE of isolated mitochondria, nucleotide-dependent oligomerization. As to conditions: 2 mM GMP-PNP, 37 C, 30 min; non-hydrolyzable GTP analog; indirect read-out by oligomer shift.

Substitutions are numbered along the chain they refer to. Where a name gives a salt, the structure may show the parent alone.

In the case of `Nc1nc2c(ncn2[C@@H]2O[C@H](COP(=O)(O)OP(=O)(O)OP(=O)(O)O)[C@@H](O)[C@H]2O)c(=O)[nH]1` [GTP], the Khalf entry is “kinetics of GTP hydrolysis was similar between Mfn1IM^WT and Mfn1IM^S329P” in assay [1]; “kinetics of GTP hydrolysis was similar between Mfn1IM^WT and Mfn1IM^S329P” in assay [2]. As for `Nc1nc2c(ncn2[C@@H]2O[C@H](COP(=O)(O)OP(=O)(O)NP(=O)(O)O)[C@@H](O)[C@H]2O)c(=O)[nH]1` [GMP-PNP, guanosine 5′-β,γ-imidotriphosphate trisodium salt hydrate], in assay [3], the “blue native PAGE of isolated mitochondria, nucleotide-dependent oligomerization” value is “GMP-PNP, which shifts mitofusin from the dimer into two larger species”.

(Values after paper PMC9568670, “A dominant negative mitofusin causes mitochondrial perinuclear clusters because of aberrant tethering” (Life Science Alliance, 2022).)
